Measured values published in publication PMC7914897, “Cytotoxic Potential of a-Azepano- and 3-Amino-3,4-SeCo-Triterpenoids” (International Journal of Molecular Sciences, 2021).
Read-outs that look alike come from different tables or passages of the source.

Columns and labels:
UACC-62 (Melanoma) = test: NCI-60 screen (SRB, 48 h); settings: Homo sapiens
ACHN (Renal cancer) = test: NCI-60 screen (SRB, 48 h); settings: Homo sapiens
OVCAR-4 (Ovarian cancer) = test: NCI-60 screen (SRB, 48 h); format: cell-based; settings: Homo sapiens
OVCAR-8 (Ovarian cancer) = test: NCI-60 screen (SRB, 48 h); settings: Homo sapiens
HOP-62 (NSC lung cancer) = test: NCI-60 screen (SRB, 48 h); settings: Homo sapiens
HCT-116 (Colon cancer) = test: NCI-60 screen (SRB, 48 h); settings: Homo sapiens
PC-3 (Prostate cancer) = test: NCI-60 screen (SRB, 48 h); settings: Homo sapiens
[1] = test system: NCI/ADR-RES (Ovarian cancer); test: NCI-60 screen (SRB, 48 h); settings: Homo sapiens
[2] = test system: MDA-MB-31/ATCC (Breast cancer); test: NCI-60 screen (SRB, 48 h); settings: Homo sapiens
SK-OV-3 (Ovarian cancer) = test: NCI-60 screen (SRB, 48 h); settings: Homo sapiens
EKVX (NSC lung cancer) = test: NCI-60 screen (SRB, 48 h); settings: Homo sapiens
A498 (Renal cancer) = test: NCI-60 screen (SRB, 48 h); settings: Homo sapiens
SNB-75 (CNS cancer) = test: NCI-60 screen (SRB, 48 h); settings: Homo sapiens
786-0 (Renal cancer) = test: NCI-60 screen (SRB, 48 h); settings: Homo sapiens
[3] = test system: panel of approximately 60 cancer cell lines; test: NCI-60 screen (SRB, 48 h), full panel
Renal Cancer subpanel = test: NCI-60 screen, subpanel; settings: Homo sapiens
SN12C (Renal cancer) = test: NCI-60 screen (SRB, 48 h); settings: Homo sapiens
Colon Cancer subpanel = test: NCI-60 screen, subpanel; settings: Homo sapiens
[4] = test system: NIH 3T3 (non-malignant mouse fibroblasts); test: SRB cytotoxicity assay, 72 h; format: cell-based; settings: Mus musculus, NIH3T3; NIH 3T3, 72 h, cut-off 30 µM; read-out: EC50
Outline: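 Absorbance at 570 nm of SRB-stained cells gives % survival vs untreated controls, from which EC50 is determined. Treatment: 0–30 µM serial dilutions, 72 h, beginning 24 h post-seeding; DMSO ≤0.5%. TCA (10%) fixation, acetic acid wash.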

[5] = test system: NCI-H322M (NSC lung cancer); test: NCI-60 screen (SRB, 48 h); settings: Homo sapiens
[6] = test system: MDA-MB-468 (Breast cancer); test: cells; settings: Homo sapiens
BT-549 (Breast cancer) = test: NCI-60 screen (SRB, 48 h); format: cell-based; settings: Homo sapiens

For C=C(C)C1CCC2(CO)CCC3(C)C(CCC4C5(C)CCCNC(C)(C)C5CCC43C)C12 (stereo not shown) [Compound 1, Azepanobetulin], which GI50 (UACC-62 (Melanoma); UACC-62) is on record?
Its GI50 is 1.82 µM.

And the IC (TGI) (UACC-62 (Melanoma); UACC-62, 48 h, read-out: TGI)?
Its IC (TGI) is 3.25 µM.

And the CC50 (UACC-62 (Melanoma); UACC-62, read-out: LC50)?
The CC50 was 5.8 µM.

What about the GI50 (ACHN (Renal cancer)) of the same compound?
Its GI50 is 1.7 µM.

And the IC (TGI) (ACHN (Renal cancer); 48 h, read-out: TGI)?
The IC (TGI) was 3.09 µM.

And the CC50 (ACHN (Renal cancer); read-out: LC50)?
The CC50 was 5.61 µM.

And the IC (TGI) (OVCAR-4 (Ovarian cancer); OVCAR-4, 48 h)?
Its IC (TGI) is 2.81 µM.

What about the GI50 (OVCAR-4 (Ovarian cancer); OVCAR-4, read-out: GI50) of the same compound?
Its GI50 is 1.45 µM.

And the GI50 (OVCAR-8 (Ovarian cancer); OVCAR-8)?
Its GI50 is 1.83 µM.

And the IC (TGI) (OVCAR-8 (Ovarian cancer); OVCAR-8, 48 h, read-out: TGI)?
Its IC (TGI) is 3.51 µM.

And the CC50 (OVCAR-8 (Ovarian cancer); OVCAR-8, read-out: LC50)?
The CC50 was 6.73 µM.

What about the GI50 (HOP-62 (NSC lung cancer); HOP-62) of the same compound?
Its GI50 is 1.81 µM.

What about the IC (TGI) (HOP-62 (NSC lung cancer); HOP-62, 48 h, read-out: TGI) of the same compound?
The IC (TGI) was 3.42 µM.

What about the CC50 (HOP-62 (NSC lung cancer); HOP-62, read-out: LC50) of the same compound?
The CC50 was 6.46 µM.

And the GI50 (HCT-116 (Colon cancer); HCT-116)?
Its GI50 is 1.29 µM.

What about the activity at 10 µM (HCT-116 (Colon cancer); HCT-116, 48 h, read-out: Growth % of the Most Sensitive Cell Lines) of the same compound?
The activity at 10 µM was -79%.

And the IC (TGI) (HCT-116 (Colon cancer); HCT-116, 48 h, read-out: TGI)?
Its IC (TGI) is 2.63 µM.

And the CC50 (HCT-116 (Colon cancer); HCT-116, read-out: LC50)?
Its CC50 is 5.38 µM.

And the GI50 (PC-3 (Prostate cancer); PC-3)?
Its GI50 is 2.94 µM.

And the IC (TGI) (PC-3 (Prostate cancer); PC-3, 48 h, read-out: TGI)?
The IC (TGI) was 2.94 µM.

And the CC50 (PC-3 (Prostate cancer); PC-3, read-out: LC50)?
Its CC50 is 5.74 µM.

What about the GI50 [1] of the same compound?
The GI50 was 1.63 µM.

And the IC (TGI) ([1]; 48 h, read-out: TGI)?
The IC (TGI) was 3.18 µM.

And the CC50 ([1]; read-out: LC50)?
Its CC50 is 6.18 µM.

And the GI50 [2]?
Its GI50 is 1.77 µM.

What about the IC (TGI) ([2]; 48 h, read-out: TGI) of the same compound?
Its IC (TGI) is 3.21 µM.

What about the CC50 ([2]; read-out: LC50) of the same compound?
The CC50 was 5.8 µM.

What about the GI50 (SK-OV-3 (Ovarian cancer); SK-OV-3) of the same compound?
The GI50 was 1.83 µM.

And the IC (TGI) (SK-OV-3 (Ovarian cancer); SK-OV-3, 48 h, read-out: TGI)?
The IC (TGI) was 3.49 µM.

And the CC50 (SK-OV-3 (Ovarian cancer); SK-OV-3, read-out: LC50)?
Its CC50 is 6.64 µM.

And the GI50 (EKVX (NSC lung cancer))?
Its GI50 is 1.55 µM.

What about the IC (TGI) (EKVX (NSC lung cancer); 48 h, read-out: TGI) of the same compound?
The IC (TGI) was 3.03 µM.

And the CC50 (EKVX (NSC lung cancer); read-out: LC50)?
Its CC50 is 5.92 µM.

And the GI50 (A498 (Renal cancer); A498)?
Its GI50 is 2.17 µM.

What about the IC (TGI) (A498 (Renal cancer); A498, 48 h, read-out: TGI) of the same compound?
Its IC (TGI) is 5.63 µM.

And the CC50 (A498 (Renal cancer); A498, read-out: LC50)?
Its CC50 is 33 µM.

What about the GI50 (SNB-75 (CNS cancer); SNB-75) of the same compound?
Its GI50 is 1.54 µM.

And the IC (TGI) (SNB-75 (CNS cancer); SNB-75, 48 h, read-out: TGI)?
Its IC (TGI) is 2.91 µM.

What about the CC50 (SNB-75 (CNS cancer); SNB-75, read-out: LC50) of the same compound?
Its CC50 is 5.5 µM.

And the GI50 (786-0 (Renal cancer); 786-0)?
Its GI50 is 1.62 µM.

What about the IC (TGI) (786-0 (Renal cancer); 786-0, 48 h, read-out: TGI) of the same compound?
Its IC (TGI) is 3.16 µM.

And the CC50 (786-0 (Renal cancer); 786-0, read-out: LC50)?
The CC50 was 6.19 µM.

And the “Positive Cytostatic Effect (cell lines with percent growth 0 to 50 / total)” value ([3]; 1 dose 10 µM)?
The value was 27/59.

What about the “number of cancer cell lines the compound was active against” value ([3]; 1 dose 10 µM) of the same compound?
Its value is 28 cell lines.

And the activity at 10 µM ([3]; Homo sapiens, 48 h, read-out: Mean Growth, %)?
The activity at 10 µM was 20.8%.

And the activity at 10 µM ([3]; Homo sapiens, 48 h, read-out: Range of Growth, %)?
Its activity at 10 µM is -82.5 to 84.4%.

What about the IC (TGI) ([3]; Homo sapiens, 48 h, read-out: TGI MG_MID60, average over all cell lines) of the same compound?
Its IC (TGI) is 3.34 µM.

What about the GI50 ([3]; Homo sapiens, read-out: GI50 MG_MID60) of the same compound?
The GI50 was 1.7 µM.

What about the GI50 ([3]; Homo sapiens, read-out: GI50 against all human tumor cell lines) of the same compound?
Its GI50 is under 3 µM.

What about the IC (TGI) (Renal Cancer subpanel; 48 h, read-out: TGI MG_MID) of the same compound?
The IC (TGI) was 3.43 µM.

What about the GI50 (Renal Cancer subpanel; read-out: GI50 MG_MID) of the same compound?
The GI50 was 1.71 µM.

And the CC50 (Renal Cancer subpanel; read-out: LC50 MG_MID)?
Its CC50 is 9.33 µM.

And the GI50 (SN12C (Renal cancer))?
The GI50 was 1.62 µM.

And the IC (TGI) (SN12C (Renal cancer); 48 h, read-out: TGI)?
Its IC (TGI) is 3.03 µM.

What about the CC50 (SN12C (Renal cancer); read-out: LC50) of the same compound?
The CC50 was 5.69 µM.

What about the IC (TGI) (Colon Cancer subpanel; 48 h, read-out: TGI MG_MID) of the same compound?
Its IC (TGI) is 3.01 µM.

What about the GI50 (Colon Cancer subpanel; read-out: GI50 MG_MID) of the same compound?
The GI50 was 1.51 µM.

What about the CC50 (Colon Cancer subpanel; read-out: LC50 MG_MID) of the same compound?
Its CC50 is 5.98 µM.

What about the EC50 [4] of the same compound?
The EC50 was 1.6 ± 0.4 µM.

What about the GI50 [5] of the same compound?
The GI50 was 1.63 µM.

And the IC (TGI) ([5]; 48 h, read-out: TGI)?
Its IC (TGI) is 3.03 µM.

What about the CC50 ([5]; read-out: LC50) of the same compound?
The CC50 was 5.64 µM.

What about the GI50 ([6]; MDA-MB-468) of the same compound?
The GI50 was 1.66 µM.

And the IC (TGI) ([6]; MDA-MB-468, 48 h, read-out: TGI)?
The IC (TGI) was 3.38 µM.

And the CC50 ([6]; MDA-MB-468, read-out: LC50)?
Its CC50 is 6.88 µM.

And the GI50 (BT-549 (Breast cancer); BT-549)?
The GI50 was 1.79 µM.

What about the IC (TGI) (BT-549 (Breast cancer); BT-549, 48 h) of the same compound?
Its IC (TGI) is 3.46 µM.
